Measurements reported in US7541018B2, “Treatment process using somatostatin analogues” (University of Bern, priority 2001, dated 2009).
Bridge positions count the residues as written; N and C are the ends. Square brackets hold non-standard residues; d marks the D form. Peptide text beside a SMILES is read from it. * marks the point of attachment. DOTA = O=C(O)CN1CCN(CC(=O)O)CCN(CC(=O)*)CCN(CC(=O)O)CC1; dDab = NCC[C@@H](N)C(=O)O; GABA = NCCCC(=O)O

Experiments:
Test in all cases: Receptor autoradiography displacement of 125I-[Leu8,D-Trp22,Tyr25]-somatostatin 28 on membrane pellet sections
Assay type in all cases: binding
human sst2 = target: T1, human sst2 (Homo sapiens, UniProt P30874); settings: CCL39 cells stably expressing human sst2; sectioned membrane pellets; read-out: IC50 hsst2
T1 construct: expressed in transfected cells; host or cells: CCL39
T1 sequence (P30874 whole entry): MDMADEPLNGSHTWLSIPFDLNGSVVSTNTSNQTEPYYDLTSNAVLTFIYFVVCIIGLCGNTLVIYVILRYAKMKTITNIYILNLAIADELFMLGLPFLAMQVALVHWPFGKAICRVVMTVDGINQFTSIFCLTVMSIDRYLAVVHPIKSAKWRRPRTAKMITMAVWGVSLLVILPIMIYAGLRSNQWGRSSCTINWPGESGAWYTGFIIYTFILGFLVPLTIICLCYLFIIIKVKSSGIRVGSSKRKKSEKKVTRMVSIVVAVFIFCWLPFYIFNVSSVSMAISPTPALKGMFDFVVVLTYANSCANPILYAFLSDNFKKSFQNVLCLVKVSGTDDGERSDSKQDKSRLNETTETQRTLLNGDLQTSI
Procedure: (§1) Cell culture CHO-K1 cells stably expressing human sst1 and sst5 were kindly provided by Drs. T. Reisine and G. Singh (University of Pennsylvania, Philadelphia, Pa.) and CCL39 cells stably expressing human sst2, sst3, and sst4 by Dr. D. Hoyer (Novartis Pharma, Basel, Switzerland).
(§2) CHO-K1 cells were grown in Ham's F-12 medium and CCL39 cells in Dulbecco's modified Eagle's medium/Ham's F-12 (1:1) mix, supplemented with 10% fetal bovine serum, 100 μg/mL penicillin and 100 μg/mL streptomycin, in humidified air containing 5% CO2 at 37° C. Geneticin (G418-sulfate; Gibco, USA) was used where necessary to maintain selection pressure at a final concentration of 400 μg/mL for sst2 to sst4—and 285 μg/mL for sst5—expressing cells as described previously (Rens-Domiano S. & Reisine T., Biochemical and functional properties of somatostatin receptors, J. Neurochem., 58:1987-1996 (1992); O'Caroll A. et al., Characterization of cloned human somatostatin receptor SSTR5, Molec. Pharmacol., 46:291-298 (1994); Siehler S. et al., [^125I]Tyr^10-cortistatin14 labels all five somatostatin receptors, Naunyn-Schmiedeberg's Arch. Pharmacol., 357:483-489 (1998).).
(§3) Cells were washed twice with and scraped into ice-cold 0.05 M Tris-CHl (pH 7.4), collected by centrifugation, and homogenized using a rotor/stator slash system (POLYTRON®, Kinematica Inc., Littau, Switzerland) in the same buffer. After centrifugation at 120 g for 5 min at 4° C., the supernatant was collected and centrifuged again at 48,000 g for 30 min at 4° C. The resulting pellet was re-suspended in ice-cold Tris buffer, transferred into a microfuge tube, and centrifuged at 20,000 g for 15 min at 4° C. After withdrawal of the supernatant, the membrane pellet was stored at −80° C.
(§4) Receptor autoradiography was performed on 20 μm thick cryostat (Leitz 1720, Rockleigh, N.J.) sections of the membrane pellets, mounted on microscope slides, and then stored at −20° C.
(§5) IC50 values were calculated after quantification of the data using a computer-assisted image processing system as described previously (Reubi, J. C. et al., Detection of somatostatin receptors in surgical and percutaneous needle biopsy samples of carcinoids and islet cell carcinomas, Cancer Res. 50: 5969-5977 (1990).). Tissue standards (Autoradiographic [^125I] microscales, Amersham) that contain known amounts of isotope, cross-calibrated to tissue-equivalent ligand concentrations were used for quantification (Reubi, J. C., In vitro identification of vasoactive intestinal peptide receptors in human tumors: Implications for tumor imaging, J. Nucl. Med. 36: 1846-1853 (1995).).

human sst5 = target: T2, human sst5 (Homo sapiens, UniProt P35346); settings: CHO-K1 cells stably expressing human sst5; sectioned membrane pellets; read-out: IC50 hsst5
T2 construct: expressed in transfected cells; host or cells: CHO-K1
T2 sequence (P35346 whole entry): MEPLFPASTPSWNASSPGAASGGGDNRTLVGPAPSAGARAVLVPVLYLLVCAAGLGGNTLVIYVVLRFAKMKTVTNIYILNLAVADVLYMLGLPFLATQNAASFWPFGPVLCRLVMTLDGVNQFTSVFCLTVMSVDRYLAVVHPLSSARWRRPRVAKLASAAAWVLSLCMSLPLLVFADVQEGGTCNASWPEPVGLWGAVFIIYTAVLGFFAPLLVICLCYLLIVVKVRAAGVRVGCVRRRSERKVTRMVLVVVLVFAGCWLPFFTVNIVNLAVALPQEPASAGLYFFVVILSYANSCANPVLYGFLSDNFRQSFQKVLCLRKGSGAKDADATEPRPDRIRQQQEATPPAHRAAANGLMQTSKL
Procedure: as §1, §2, §3, §4, §5

human sst4 = target: T3, human sst4 (Homo sapiens, UniProt P31391); settings: CCL39 cells stably expressing human sst4; sectioned membrane pellets; read-out: IC50 hsst4
T3 construct: expressed in transfected cells; host or cells: CCL39
T3 sequence (P31391 whole entry): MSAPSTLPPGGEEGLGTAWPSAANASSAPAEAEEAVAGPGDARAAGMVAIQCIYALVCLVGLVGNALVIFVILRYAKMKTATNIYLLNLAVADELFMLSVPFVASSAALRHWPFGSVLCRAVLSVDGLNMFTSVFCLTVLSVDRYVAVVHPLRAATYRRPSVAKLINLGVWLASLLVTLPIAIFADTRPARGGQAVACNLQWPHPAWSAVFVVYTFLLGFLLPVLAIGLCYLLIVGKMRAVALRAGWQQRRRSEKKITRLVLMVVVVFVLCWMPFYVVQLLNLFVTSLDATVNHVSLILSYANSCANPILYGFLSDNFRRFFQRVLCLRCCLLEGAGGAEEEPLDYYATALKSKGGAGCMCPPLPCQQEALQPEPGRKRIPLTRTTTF
Procedure: as §1, §2, §3, §4, §5

human sst3 = target: T4, human sst3 (Homo sapiens, UniProt P32745); settings: CCL39 cells stably expressing human sst3; sectioned membrane pellets; read-out: IC50 hsst3
T4 construct: expressed in transfected cells; host or cells: CCL39
T4 sequence (P32745 whole entry): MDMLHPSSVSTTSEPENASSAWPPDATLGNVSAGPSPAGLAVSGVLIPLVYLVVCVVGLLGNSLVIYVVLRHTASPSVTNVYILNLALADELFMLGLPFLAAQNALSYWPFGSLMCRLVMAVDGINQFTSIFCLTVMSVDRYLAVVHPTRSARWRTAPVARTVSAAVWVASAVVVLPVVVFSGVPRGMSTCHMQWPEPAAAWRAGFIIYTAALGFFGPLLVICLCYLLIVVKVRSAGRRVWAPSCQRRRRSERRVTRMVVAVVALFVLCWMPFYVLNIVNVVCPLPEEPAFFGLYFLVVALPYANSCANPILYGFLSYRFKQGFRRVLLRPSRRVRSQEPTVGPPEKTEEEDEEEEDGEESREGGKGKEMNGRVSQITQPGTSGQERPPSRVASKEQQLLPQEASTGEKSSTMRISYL
Procedure: as §1, §2, §3, §4, §5

human sst1 = target: T5, human sst1 (Homo sapiens, UniProt P30872); settings: CHO-K1 cells stably expressing human sst1; sectioned membrane pellets; read-out: IC50 hsst1
T5 construct: expressed in transfected cells; host or cells: CHO-K1
T5 sequence (P30872 whole entry): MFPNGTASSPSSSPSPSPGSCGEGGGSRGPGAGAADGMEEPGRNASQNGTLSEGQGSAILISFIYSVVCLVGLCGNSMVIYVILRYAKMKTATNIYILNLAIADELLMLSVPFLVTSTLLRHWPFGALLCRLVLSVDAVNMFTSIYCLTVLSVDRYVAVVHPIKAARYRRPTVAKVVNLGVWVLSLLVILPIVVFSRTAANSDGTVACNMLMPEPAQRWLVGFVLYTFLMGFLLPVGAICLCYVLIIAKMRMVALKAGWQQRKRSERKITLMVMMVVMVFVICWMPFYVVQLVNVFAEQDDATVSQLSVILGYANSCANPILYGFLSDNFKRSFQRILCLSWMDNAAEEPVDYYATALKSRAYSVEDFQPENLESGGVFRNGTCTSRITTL
Procedure: as §1, §2, §3, §4, §5

IC50 (human sst2) [nM] | IC50 (human sst5) [nM] | IC50 (human sst4) [nM] | IC50 (human sst3) [nM] | IC50 (human sst1) [nM] | Structure (SMILES)
2.9 | 0.8 | 1 | 2 | 24.5 | C[C@@H](O)[C@@H]1NC(=O)[C@H](CCCCN)NC(=O)[C@@H](Cc2c[nH]c3ccccc23)NC(=O)[C@H](Cc2ccc(O)cc2)NC(=O)[C@H](Cc2ccccc2)NC(=O)[C@H](CCCNC(=N)N)NC(=O)[C@H](N)CCNC(=O)[C@H](Cc2ccccc2)NC1=O [A with X4 is Tyr] (H-[dDab]RFY[dW]KTF; lactam 1-C)
– | 0.57 | 0.68 | 1.7 | 10.5 | C[C@@H](O)[C@@H]1NC(=O)[C@H](CCCCN)NC(=O)[C@@H](Cc2c[nH]c3ccccc23)NC(=O)[C@H](Cc2ccc(O)cc2)NC(=O)[C@H](Cc2ccccc2)NC(=O)[C@H](CCCNC(=N)N)NC(=O)CCCNC(=O)[C@H](Cc2ccccc2)NC1=O [A with X4 is Tyr and X1 is GABA] (cyclo(F[GABA]RFY[dW]KT); ring closure inferred)
– | 6.8 | 15.3 | 3.2 | 172 | C[C@@H](O)[C@@H]1NC(=O)[C@H](CCCCN)NC(=O)[C@@H](Cc2c[nH]c3ccccc23)NC(=O)[C@H](Cc2ccccc2)NC(=O)[C@H](Cc2ccccc2)NC(=O)[C@H](CC(N)=O)NC(=O)CCCNC(=O)[C@H](Cc2ccccc2)NC1=O [minisomatostatin, reference compound] (cyclo(FF[dW]KTF[GABA]N))
3 | 0.8 | 0.9 | 1.6 | 7.6 | C[C@@H](O)[C@@H]1NC(=O)[C@H](CCCCN)NC(=O)[C@@H](Cc2c[nH]c3ccccc23)NC(=O)[C@H](Cc2ccccc2)NC(=O)[C@H](Cc2ccccc2)NC(=O)[C@H](CCCNC(=N)N)NC(=O)[C@H](NC(=O)CN2CCN(CC(=O)O)CCN(CC(=O)O)CCN(CC(=O)O)CC2)CCNC(=O)[C@H](Cc2ccccc2)NC1=O [A, Z = DOTA] ({DOTA}-[dDab]RFF[dW]KTF; lactam 1-C)
